From ChEMBL document CHEMBL1149593, “Mechanism of the melanogenesis stimulation activity of (-)-cubebin in murine B16 melanoma cells” (2007)
Calls of active or inactive are those of the source. The calls are words filed in the database; no cut-off is given here.

What was measured:
[1] = test system: B16; assay: Induction of tyrosinase mRNA expression in mouse B16 cells in presence of SB-203580; type: functional, cell-based
[2] = test system: B16; assay: Increase in tyrosinase mRNA expression in mouse B16 cells at 10 uM after 12 hrs; type: functional
[3] = test system: B16; assay: Increase in tyrosinase activity in mouse B16 cells at 10 uM after 24 to 96 hrs; type: functional, cell-based
[4] = test system: B16; assay: Increase in tyrosinase expression in mouse B16 cells at 10 uM after 48 hrs; type: functional
[5] = target: MAP kinase p38 (Mus musculus) (UniProt P47811+O08911+Q9WUI1+Q9Z1B7); assay: Increase in p38 MAPK phosphorylation in mouse B16 cells at 4 to 8 hrs; type: cell-based
[6] = test system: B16; assay: Melanogenesis stimulation activity in mouse B16 cells at 2 to 10 uM; type: functional, cell-based
[7] = test system: B16; assay: Increase in melanin level in mouse B16 cells at 10 uM after 48 to 96 hrs; type: functional, cell-based

With `O[C@H]1OC[C@H](Cc2ccc3c(c2)OCO3)[C@H]1Cc1ccc2c(c1)OCO2` the Activity [1] was “inactive”, the Fold change [2] was 1.8 and the Activity [3] was “Active”. The Fold change [4] was 6.2, the Activity [5] was “Active” and the Activity [6] was “Active”. For the same molecule, the Activity [7] was “Active”.
